Experimental findings from patent publication US20250099478A1, “PLASMA KALLIKREIN INHIBITORS” (Merck Sharp & Dohme LLC, priority 2022, published 2025) are described below.

pIC50: −log10 of the molar value.

In this experiment the target is T1, Human plasma kallikrein (Homo sapiens, UniProt P03952).
T1 construct: yields a heavy chain (371 amino acids) and a light chain (248 amino acids); purchased Enzyme Research Laboratories
T1 sequence (P03952 391-638 limits assumed): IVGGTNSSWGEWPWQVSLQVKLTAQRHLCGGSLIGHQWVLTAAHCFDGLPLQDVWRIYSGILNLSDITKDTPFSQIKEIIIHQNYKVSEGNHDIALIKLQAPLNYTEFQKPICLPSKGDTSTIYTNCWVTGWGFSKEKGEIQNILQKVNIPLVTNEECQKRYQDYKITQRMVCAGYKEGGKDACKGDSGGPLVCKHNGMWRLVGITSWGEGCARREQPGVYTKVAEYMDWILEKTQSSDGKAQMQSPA
T1 sequence (P03952 20-390 partner limits assumed): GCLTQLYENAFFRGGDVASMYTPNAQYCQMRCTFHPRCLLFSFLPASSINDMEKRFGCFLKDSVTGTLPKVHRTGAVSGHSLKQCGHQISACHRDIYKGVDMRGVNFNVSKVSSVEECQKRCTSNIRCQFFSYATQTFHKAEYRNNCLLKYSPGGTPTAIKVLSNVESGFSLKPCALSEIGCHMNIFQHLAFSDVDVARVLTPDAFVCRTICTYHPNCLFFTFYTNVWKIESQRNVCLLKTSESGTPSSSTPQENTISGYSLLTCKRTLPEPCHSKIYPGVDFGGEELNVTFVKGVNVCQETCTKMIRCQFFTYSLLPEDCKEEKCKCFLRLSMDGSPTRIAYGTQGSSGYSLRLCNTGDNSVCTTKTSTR
Briefly: Plasma Kallikrein Assay. It counts as biochemical. To be noted: purified Human plasma kallikrein 0.5 nM, substrate Acetyl-K-P-R-AFC; read-out: PKal IC50. As for the experimental part: The effectiveness of a compound of the present invention as an inhibitor of plasma kallikrein can be determined using a relevant purified serine protease, and an appropriate synthetic substrate. The rate of hydrolysis of the chromogenic or fluorogenic substrate by the relevant serine protease was measured both in the absence and presence of compounds of the present invention. Assays were conducted at rt or at 37° C. […] A decrease in the rate of fluorescence change in the presence of inhibitor is indicative of enzyme inhibition. Such methods are known to one skilled in the art. The results of this assay are expressed as the half-maximal inhibitory concentrations (IC50), or the inhibitory constant, Ki.
Plasma kallikrein determinations were made in 50 mM HEPES buffer at pH 7.4 containing 150 mM NaCl, 5 mM CaCl2), and 0.1% PEG 8000 (polyethylene glycol; Fisher Scientific). Determinations were made using purified Human plasma kallikrein at a final concentration of 0.5 nM (Enzyme Research Laboratories) and the synthetic substrate, Acetyl-K-P-R-AFC (Sigma #C6608) at a concentration of […].
Times required to achieve equilibration between enzyme and inhibitor were determined in control experiments. […] IC50 was determined by inflection point from a four parameter logistic curve fit. Ki was calculated using the Cheng Prusoff equation, Ki=IC50/(1+([S]/Km)).
Regarding `NS(=O)(=O)c1cccc(Cn2cc(C(=O)N3CCC[C@@]4(C3)OC(=O)Nc3ccc(Cl)c(F)c34)cn2)c1` [Example 62, (R)-3-((4-(6-chloro-5-fluoro-2-oxo-1,2-dihydrospiro[benzo[d][1,3]oxazine-4,3′-piperidine]-1′-carbonyl)-1H-pyrazol-1-yl)methyl)benzenesulfonamide], the negative-log IC50 (pIC50) was 7.31.

With `O=C1Nc2ccc(Cl)c(F)c2[C@@]2(CCCN(C(=O)c3cnn(Cc4cncc(Cl)c4)c3)C2)O1` [Example 12, (R)-6-Chloro-1′-(1-((5-chloropyridin-3-yl)methyl)-1H-pyrazole-4-carbonyl)-5-fluorospiro[benzo[d][1,3]oxazine-4,3′-piperidin]-2(1H)-one], the pIC50 was 7.58.

With `O=C1Nc2ccc(Cl)c(F)c2[C@@]2(CCCN(C(=O)c3cnn(Cc4ccc5ccsc5c4)c3)C2)O1` [Example 55, (R)-1′-(1-(Benzo[b]thiophen-6-ylmethyl)-1H-pyrazole-4-carbonyl)-6-chloro-5-fluorospiro[benzo[d][1,3]oxazine-4,3′-piperidin]-2(1H)-one], the pIC50 is 7.77.

As for `O=C1Nc2ccc(Cl)c(F)c2[C@@]2(CCCN(C(=O)c3cnn(Cc4ccc5c(c4)COC5)c3)C2)O1` [Example 60, (R)-6-chloro-1′-(1-((1,3-dihydroisobenzofuran-5-yl)methyl)-1H-pyrazole-4-carbonyl)-5-fluorospiro[benzo[d][1,3]oxazine-4,3′-piperidin]-2(1H)-one], the pIC50 was 7.83.

For `O=C1Nc2ccc(Cl)c(F)c2[C@@]2(CCCN(C(=O)c3nnc(Cc4cccc(CO)c4)[nH]3)C2)O1` [Example 116, (R)-6-Chloro-5-fluoro-1′-(5-(3-(hydroxymethyl)benzyl)-4H-1,2,4-triazole-3-carbonyl)spiro[benzo[d][1,3]oxazine-4,3′-piperidin]-2(1H)-one], the pIC50 was 7.40.

For the compound `CCC(c1ccc2ncncc2c1)n1cc(C(=O)N2CCC[C@@]3(C2)OC(=O)Nc2ccc(Cl)c(F)c23)cn1` (single isomer, unassigned) [Example 41], the pIC50 was 7.47.

Turning to `Cc1cnn(Cc2ccc(Cn3cc(C(=O)N4CC[C@]5(C4)OC(=O)Nc4ccc(Cl)c(F)c45)cn3)cc2)c1` [Example 134, (S)-6-Chloro-5-fluoro-1′-(1-(4-((4-methyl-1H-pyrazol-1-yl)methyl)benzyl)-1H-pyrazole-4-carbonyl)spiro[benzo[d][1,3]oxazine-4,3′-pyrrolidin]-2(1H)-one], the pIC50 was 7.68.

As to `CN1CCOc2cc(Cn3cc(C(=O)N4CCC[C@@]5(C4)OC(=O)Nc4ccc(Cl)c(F)c45)cn3)ccc21` [Example 51, (R)-6-Chloro-5-fluoro-1′-(1-((4-methyl-3,4-dihydro-2H-benzo[b][1,4]oxazin-7-yl)methyl)-1H-pyrazole-4-carbonyl)spiro[benzo[d][1,3]oxazine-4,3′-piperidin]-2(1H)-one], the pIC50 is 7.45.

Take `C[C@H](c1cccc(Cl)c1)n1cc(C(=O)N2CCC[C@@]3(C2)OC(=O)Nc2ccc(Cl)c(F)c23)cn1` (single isomer, unassigned) [Example 28]: the pIC50 is 7.98.

`O=C1Nc2ccc(Cl)c(F)c2[C@]2(CCN(C(=O)c3cnn(Cc4ccc(Cn5ccccc5=O)cn4)c3)C2)O1` [Example 133, (S)-6-Chloro-5-fluoro-1′-(1-((5-((2-oxopyridin-1(2H)-yl)methyl)pyridin-2-yl)methyl)-1H-pyrazole-4-carbonyl)spiro[benzo[d][1,3]oxazine-4,3′-pyrrolidin]-2(1H)-one]: the pIC50 was 7.82.

For `Cc1ccc(Cc2nnc(C(=O)N3CCC[C@@]4(C3)OC(=O)Nc3ccc(Cl)c(F)c34)[nH]2)cc1C` [Example 126, (R)-6-Chloro-1′-(5-(3,4-dimethylbenzyl)-4H-1,2,4-triazole-3-carbonyl)-5-fluorospiro[benzo[d][1,3]oxazine-4,3′-piperidin]-2(1H)-one], the pIC50 was 7.48.

For `O=C1Nc2ccc(Cl)c(F)c2[C@@]2(CCCN(C(=O)c3cnn(Cc4ccc(-c5c[nH]c(=O)o5)cc4)c3)C2)O1` [Example 53, (R)-6-Chloro-5-fluoro-1′-(1-(4-(2-oxo-2,3-dihydrooxazol-5-yl)benzyl)-1H-pyrazole-4-carbonyl)spiro[benzo[d][1,3]oxazine-4,3′-piperidin]-2(1H)-one], the pIC50 was 7.73.

For the compound `O=C1Nc2ccc(Cl)c(F)c2[C@@]2(CCCN(C(=O)c3cnn(Cc4ccc5c(c4)OCCO5)c3)C2)O1` [Example 54, (R)-6-Chloro-1′-(1-((2,3-dihydrobenzo[b][1,4]dioxin-6-yl)methyl)-1H-pyrazole-4-carbonyl)-5-fluorospiro[benzo[d][1,3]oxazine-4,3′-piperidin]-2(1H)-one], the pIC50 is 7.53.

`Cn1cc(-c2ccc(Cc3nnc(C(=O)N4CCC[C@@]5(C4)OC(=O)Nc4ccc(Cl)c(F)c45)[nH]3)cc2)cn1` [Example 91, (R)-6-Chloro-5-fluoro-1′-(5-(4-(1-methyl-1H-pyrazol-4-yl)benzyl)-4H-1,2,4-triazole-3-carbonyl)spiro[benzo[d][1,3]oxazine-4,3′-piperidin]-2(1H)-one]: the pIC50 is 7.60.

Consider `O=C1Nc2ccc(Cl)c(F)c2[C@@]2(CCCN(C(=O)c3cnn(Cc4noc5ccccc45)c3)C2)O1` [Example 17, (R)-1′-(1-(Benzo[d]isoxazol-3-ylmethyl)-1H-pyrazole-4-carbonyl)-6-chloro-5-fluorospiro[benzo[d][1,3]oxazine-4,3′-piepridin]-2(1H)-one], for which the pIC50 is 7.42.

Consider `O=C1Nc2ccc(Cl)c(F)c2[C@]2(CCN(C(=O)C3CCN(Cc4ccc(Cn5ccccc5=O)cc4)C3)C2)O1` (single isomer, unassigned) [Example 136], for which the pIC50 was 7.36.

Regarding `O=C1Nc2ccc(Cl)c(F)c2[C@@]2(CCCN(C(=O)c3nnc([C@](O)(c4ccccc4)C(F)(F)F)[nH]3)C2)O1` [Example 108, (R)-6-Chloro-5-fluoro-1′-(5-((R)-2,2,2-trifluoro-1-hydroxy-1-phenylethyl)-4H-1,2,4-triazole-3-carbonyl)spiro[benzo[d][1,3]oxazine-4,3′-piperidin]-2(1H)-one], the pIC50 is 7.70.

Take `O=C1Nc2ccc(Cl)c(F)c2[C@@]2(CCCN(C(=O)c3cnn(Cc4ccc5c(c4)CNC5=O)c3)C2)O1` [Example 61, (R)-6-chloro-5-fluoro-1′-(1-((1-oxoisoindolin-5-yl)methyl)-1H-pyrazole-4-carbonyl)spiro[benzo[d][1,3]oxazine-4,3′-piperidin]-2(1H)-one]: the pIC50 is 7.44.

In the case of `CS(=O)(=O)c1cccc(Cn2cc(C(=O)N3CCC[C@@]4(C3)OC(=O)Nc3ccc(Cl)c(F)c34)cn2)c1` [Example 63, (R)-6-chloro-5-fluoro-1′-(1-(3-(methylsulfonyl)benzyl)-1H-pyrazole-4-carbonyl)spiro[benzo[d][1,3]oxazine-4,3′-piperidin]-2(1H)-one], the pIC50 was 7.37.

With `CC1CN(C(=O)c2cnn(Cc3ccccc3)c2)C[C@]2(C1)OC(=O)Nc1ccc(Cl)c(F)c12` (stereo partly drawn) [Example 20, (4R)-1′-(1-Benzyl-1H-pyrazole-4-carbonyl)-6-chloro-5-fluoro-5′-methylspiro[benzo[d][1,3]oxazine-4,3′-piperidin]-2(1H)-one], the pIC50 was 7.55.

As for `CC(c1ccccc1)n1cc(C(=O)N2CCC[C@@]3(C2)OC(=O)Nc2ccc(Cl)c(F)c23)cn1` (single isomer, unassigned) [Example 24], the pIC50 was 7.42.

By pIC50 is commonly meant the negative decadic logarithm of the IC50, by convention in mol/L.
